Test results as given in patent publication US11008620B2, “Methods for treating cancer resistant to ErbB therapeutics” (Dana-Farber Cancer Institute, Inc., priority 2007, dated 2021).

Tests used:
[1] = system: HCC827 GR cells; experiment: MTS survival assay, gefitinib-resistant HCC827 GR cells; settings: HCC827 GR cell lines / GR5; single drugs or combination
Protocol: This assay, a colorimetric method for determining the number of viable cells, is based on the bioreduction of 3-(4,5-dimethylthiazol-2-yl)-5-(3-carboxymethoxyphenyl)-2-(4-sulfophenyl)-2H-tetrazolium (MTS) by cells to a formazan product that is soluble in cell culture medium, can be detected spectrophotometrically and was performed according to previously established methods (3, 31, 10).
All experimental points were set up in six to twelve wells and all experiments were repeated at least three times. […] The curves were fitted using a non-linear regression model with a sigmoidal dose response.

[2] = system: EGFR mutant HCC827 cells and ERBB2 amplified BT474 cells; experiment: p85 immunoprecipitation and Western blot in control cell lines HCC827 and BT474; format: cell-based; settings: 1 μM, 6 hours (FIG. 3A)
[3] = system: H1993 NSCLC cells, SNU638 and MKN45 gastric cancer cells; experiment: p85 immunoprecipitation and Western blot in MET amplified cell lines; settings: 1 μM, 6 hours (FIG. 3A)
Protocol: Lysates were immunoprecipitated with anti-p85 antibodies and the immunoprecipitates were probed with anti-phospho-tyrosine, anti-ERBB-3 and anti-p85 antibodies (* indicates ERBB3 on the PTyr blot). In parallel, the lysates were analyzed by Western blotting and probed with the indicated antibodies.
Cells grown under the previously specified conditions were lysed in the following lysis buffer: 20 mM Tris, pH 7.4/150 mM NaCl/1% Nonidet P-40/10% glycerol/1 mM EDTA/1 mM EGTA/5 mM sodium pyrophosphate/50 mM NaF/10 nM (3-glycerophosphate/1 mM sodium vanadate/0.5 mM DTT/4 μg/ml leupeptin/4 μg/ml pepstatin/4 μg/ml apoprotein/1 mM PMSF. After cell lysis, lysates were centrifuged at 16,000×g for 5 min at 4° C. The supernatant was used for subsequent procedures. Western blot analyses were conducted after separation by SDS/PAGE electrophoresis and transfer to nitrocellulose membranes. Immunoblotting was performed according to the antibody manufacturers' recommendations. Antibody binding was detected using an enhanced chemiluminescence system (New England Nuclear Life Science Products Inc.).
Anti-ErbB-3 antibody was obtained from Lab Vision. […] The total Met (C-28) antibody was purchased from Santa Cruz Biotechnology (Santa Cruz, Calif.).

[4] = system: CHO cells co-expressing MET and ERBB3; settings: PHA-665,752 1 μM
Protocol: Lysates were immunoprecipitated with anti-p85 antibodies and the immunoprecipitates were probed with anti-phospho-tyrosine, anti-ERBB-3 and anti-p85 antibodies (* indicates ERBB3 on the PTyr blot). In parallel, the lysates were analyzed by Western blotting and probed with the indicated antibodies. […] Lentiviral shRNA constructs containing a scrambled (SC) sequence, ERBB3 specific sequence, a control sequence (CTRL) or GFP were infected into SNU638 cells (Methods). Seventy-two hours following infection, the cells were lysed and probed with indicated antibodies. […] C. […] Growth of SNU-638 cells was assayed by an MTS assay 5 days following infection of shRNA constructs in B. Growth is normalized to the SC shRNA. […] The resulting proteins were lysed and probed with the indicated antibodies. […] The resulting lysates were probed with either ERBB3 or MET.

[5] = system: ERBB3 and Gab1 association with p85 in HCC827 GR cells; experiment: anti-p85 immunoprecipitation in HCC827 GR cells; format: cell-based; settings: 1 μM each drug, 6 hours (FIG. 2C)
[6] = system: HCC827 GR cells; experiment: Western blot of EGFR/ERBB3/PI3K/Akt signaling in HCC827 GR cells; format: cell-based; settings: 1 μM each drug, 6 hours (FIG. 2B)
[7] = system: HCC827 cells; experiment: MTS survival assay of HCC827 cells with HGF in the presence of gefitinib; format: cell-based; settings: 50 ng/ml of HGF (FIG. 10 top left)
From the text: MET activity was induced by treating HCC827 cells with its ligand, HGF (hepatocyte growth factor).

[8] = system: HCC827 cells; experiment: crystal violet staining of viable HCC827 cells, gefitinib and HGF; format: cell-based; settings: 10 days, gefitinib 1 uM, HGF 50, 10 or 2 ng/ml (FIG. 10 bottom)
Protocol: […] cells were seeded in a 10 cm petri dish and treated with the indicated conditions for 10 days. Gefitnib was used at 1 uM, and HGF was used at 50, 10, or 2 ng/ml. The plates were then stained with crystal violet to visualize viable cells.

[9] = system: HCC827 cells; experiment: Western blot of AKT phosphorylation in HCC827 treated with gefitinib and HGF; format: cell-based; settings: gefitinib alone or with HGF, 6 hours (FIG. 10 top right)

Molecule	growth of HCC827 GR cells under drug (MTS) [1]	PI3K signaling [2]	ERBB3 and Akt phosphorylation [3]	ERBB3 association with p85 [3]	ERBB3 phosphorylation ([4]; CHO co-expressing MET and ERBB3, gefitinib 3 mM (so in the source), lapatinib 3 μM, PP2 10 μM, 6 hours (FIG. 3D))	p85 co-precipitation with ERBB3 ([4]; CHO transfected with MET and ERBB3, gefitinib 3 μM, lapatinib 3 μM (FIG. 3E))	co-precipitation of ERBB3 and Gab1 with p85 [5]	ERBB3 and Akt phosphorylation [6]	ERBB3 and Akt phosphorylation ([6]; listed as PHA-665752)	survival in the presence of gefitinib (MTS) [7]	viable cells (crystal violet) [8]	AKT phosphorylation [9]
CC#CC(=O)Nc1ccc2ncnc(Nc3cccc(Br)c3)c2c1 [CL-387,785]	did not suppress the growth	–	–	–	–	–	–	–	–	–	–	–
Cc1[nH]c(/C=C2\C(=O)Nc3ccc(S(=O)(=O)Cc4c(Cl)cccc4Cl)cc32)c(C)c1C(=O)N1CCC[C@@H]1CN1CCCC1 [PHA-665,752]	resistant	has no effect on PI3K signaling	only inhibited	disrupted	blocked	inhibited	blocks Gab-1 association with p85	minimal effect on P-Akt levels	no significant effect on p-ERBB3 or p-AKT	–	–	–
HGF: hepatocyte growth factor, ligand of MET	–	–	–	–	–	–	–	–	–	markedly improved survival	increases with increased concentrations	at least partially reversed
